One assay relates to Jurkat. The assay can be described thus: Tumor cell proliferation inhibition (CellTiter-Meiluncell Luminescent Cell Viability Assay). Particulars: Homo sapiens, 96 hours, Table I-5, designed based on the IRAK4 inhibitors, read-out: Inhibitory activity (IC50, nM) Jurkat. As for the experimental part:
The tumor cells used herein were cultured in a cell culture medium listed in table 3 at 37°C in an incubator with 5% CO2. Prior to experimentation, all cell lines used were correctly identified by STR profiling, and tested negative for mycoplasma contamination using a mycoplasma detection kit through routine screenings. Table 3. Tumor cells and cell culture medium used in the present disclosure
The IC50 values of the compounds of the present disclosure (including the compounds in Table 1, Table 2, and Examples) were determined using the CellTiter-Meiluncell Luminescent Cell Viability Assay Kit from Dalian Meilun Biotech Co., Ltd. The detailed procedure is as follows: Tumor cells were seeded in 96-well cell culture plates at the densities specified in Table 4. On the following day, the test compounds of the present disclosure were subjected to serial dilution. […] Subsequently, 0.5 µL of the test compound dilution was transferred into the 96-well plate containing the cells, with each well containing 100 µL of cell culture medium. […] Into the 96-well plate, the diluted test compounds and corresponding detection reagents were added, resulting in final test compound concentrations of 500 nM and 10 nM, respectively. The experimental procedure is described below using the diluted 2 µM test compound as an example.
0.5 µL of the aforementioned diluted compound of the present disclosure (including the compounds in Table 1, Table 2, and Examples) was added to the seeded cells in 100 µL of medium, yielding a final test compound concentration of 10 nM. After the cells were treated with the compounds of the present disclosure for a specified period, the cell viability assay reagent was added to the culture medium according to the kit's instructions to determine cell viability. […] All controls were treated using the same procedure as the compounds of the present disclosure. […] Seeding protocol and treatment time for tumor cells

For another assay, the system named is MM.1S. The assay is described as above. It counts as cell-based. Particulars: Homo sapiens, MM1.S, MM.1S, 96 hours. The gist of the method: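 Following overnight seeding, tumor cells received serial compound dilutions to final levels that included 10 nM and 500 nM. Viability was assessed by luminescence at the end of the specified exposure time. Cultures were kept at 37°C with 5% CO2.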

Assay [1] deals with T1, human Cereblon WT GST-tagged protein (Homo sapiens, UniProt Q96SW2).
T1 construct: purchased CISBIO 64BDCRBNPEH
T1 sequence (Q96SW2 whole entry): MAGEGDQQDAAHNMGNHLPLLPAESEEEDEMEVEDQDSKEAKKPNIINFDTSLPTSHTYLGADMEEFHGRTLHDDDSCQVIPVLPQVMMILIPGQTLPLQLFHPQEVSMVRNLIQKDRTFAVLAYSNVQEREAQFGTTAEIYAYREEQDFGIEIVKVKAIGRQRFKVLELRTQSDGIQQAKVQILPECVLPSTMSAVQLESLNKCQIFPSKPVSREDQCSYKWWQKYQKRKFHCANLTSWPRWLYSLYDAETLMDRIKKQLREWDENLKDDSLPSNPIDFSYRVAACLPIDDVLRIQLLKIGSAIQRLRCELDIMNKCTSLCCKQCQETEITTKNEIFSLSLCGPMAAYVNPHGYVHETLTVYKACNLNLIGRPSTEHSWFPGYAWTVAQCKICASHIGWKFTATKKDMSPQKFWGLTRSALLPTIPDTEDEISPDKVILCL
Description: CRBN-binding affinity, HTRF (CEREBLON BINDING kit). To be noted: for inhibition at 0.5 µM: read-out: Inhibition Rate at 0.5 µM (%); for inhibition at 2 µM: read-out: Inhibition Rate at 2 µM (%). The gist of the method: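 HTRF competition against a thalidomide-red probe using GST-tagged Cereblon and Eu-labelled anti-GST antibody. Test concentrations (final): 2 µM and 0.5 µM in diluent #9 (1X); blank controls lack compound and protein, containing PROTAC binding buffer.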
(In general: In TR-FRET formats the signal depends on donor and acceptor labels being close together.)

A further assay concerns the target T2, BRG1 (Homo sapiens, UniProt P51532).
T2 construct: endogenous in cells; host or cells: Molt-4
The assay can be described thus: Western blot, target protein degradation in Molt-4 Cell. It counts as cell-based. To be noted: substrate protein remaining %, treated at 500 nM and 50 nM, 24 hours. As for the experimental part:
(§1) Conventional Western blot assay was performed to evaluate the effects of the compounds of the present disclosure on the expression of target proteins in cells.
(§2) (1) Cell Seeding and Protein Harvesting: The selected cells were processed according to the cell seeding procedure and protein harvesting procedure in Table II-2. Table II-2 Cell Seeding and Protein Harvesting Procedures
(§3) (2) To the collected supernatant, 5X SDS sample loading buffer was added, followed by denaturation at 95°C for 5 minutes. The denatured samples were then separated by SDS-PAGE electrophoresis on a polyacrylamide gel. Proteins were transferred to a nitrocellulose membrane (0.45 µm NC membrane), blocked with blocking buffer at room temperature for 1 hour, and subjected to antibody incubation and development procedures according to the antibody manufacturer's instructions (Cell Signaling Technology).
(§4) Half-Maximal Degradation Concentration value (the drug concentration required for degrading proteins by 50%, abbreviated as DC50) reads method: comparing the grayscale values of Western blot bands from drug-treated samples with those from blank DMSO-treated controls, and identifying the drug concentration range at which the grayscale value is half that of the DMSO-treated control bands.
(§5) DC50 values can be calculated using ImageJ software to measure grayscale values of Western blot bands from drug-treated samples. […]
In general terms: A western blot detects proteins with antibodies after separation by electrophoresis.

The next assay concerns the target T3, BRM (Homo sapiens, UniProt P51531).
T3 construct: endogenous in cells; host or cells: Molt-4
The description is as above. It counts as cell-based. Particulars: substrate protein remaining %, treated at 500 nM and 50 nM, 24 hours. How it is done:
as §1, §2, §3, §4, §5

T2 sequence (P51532 whole entry): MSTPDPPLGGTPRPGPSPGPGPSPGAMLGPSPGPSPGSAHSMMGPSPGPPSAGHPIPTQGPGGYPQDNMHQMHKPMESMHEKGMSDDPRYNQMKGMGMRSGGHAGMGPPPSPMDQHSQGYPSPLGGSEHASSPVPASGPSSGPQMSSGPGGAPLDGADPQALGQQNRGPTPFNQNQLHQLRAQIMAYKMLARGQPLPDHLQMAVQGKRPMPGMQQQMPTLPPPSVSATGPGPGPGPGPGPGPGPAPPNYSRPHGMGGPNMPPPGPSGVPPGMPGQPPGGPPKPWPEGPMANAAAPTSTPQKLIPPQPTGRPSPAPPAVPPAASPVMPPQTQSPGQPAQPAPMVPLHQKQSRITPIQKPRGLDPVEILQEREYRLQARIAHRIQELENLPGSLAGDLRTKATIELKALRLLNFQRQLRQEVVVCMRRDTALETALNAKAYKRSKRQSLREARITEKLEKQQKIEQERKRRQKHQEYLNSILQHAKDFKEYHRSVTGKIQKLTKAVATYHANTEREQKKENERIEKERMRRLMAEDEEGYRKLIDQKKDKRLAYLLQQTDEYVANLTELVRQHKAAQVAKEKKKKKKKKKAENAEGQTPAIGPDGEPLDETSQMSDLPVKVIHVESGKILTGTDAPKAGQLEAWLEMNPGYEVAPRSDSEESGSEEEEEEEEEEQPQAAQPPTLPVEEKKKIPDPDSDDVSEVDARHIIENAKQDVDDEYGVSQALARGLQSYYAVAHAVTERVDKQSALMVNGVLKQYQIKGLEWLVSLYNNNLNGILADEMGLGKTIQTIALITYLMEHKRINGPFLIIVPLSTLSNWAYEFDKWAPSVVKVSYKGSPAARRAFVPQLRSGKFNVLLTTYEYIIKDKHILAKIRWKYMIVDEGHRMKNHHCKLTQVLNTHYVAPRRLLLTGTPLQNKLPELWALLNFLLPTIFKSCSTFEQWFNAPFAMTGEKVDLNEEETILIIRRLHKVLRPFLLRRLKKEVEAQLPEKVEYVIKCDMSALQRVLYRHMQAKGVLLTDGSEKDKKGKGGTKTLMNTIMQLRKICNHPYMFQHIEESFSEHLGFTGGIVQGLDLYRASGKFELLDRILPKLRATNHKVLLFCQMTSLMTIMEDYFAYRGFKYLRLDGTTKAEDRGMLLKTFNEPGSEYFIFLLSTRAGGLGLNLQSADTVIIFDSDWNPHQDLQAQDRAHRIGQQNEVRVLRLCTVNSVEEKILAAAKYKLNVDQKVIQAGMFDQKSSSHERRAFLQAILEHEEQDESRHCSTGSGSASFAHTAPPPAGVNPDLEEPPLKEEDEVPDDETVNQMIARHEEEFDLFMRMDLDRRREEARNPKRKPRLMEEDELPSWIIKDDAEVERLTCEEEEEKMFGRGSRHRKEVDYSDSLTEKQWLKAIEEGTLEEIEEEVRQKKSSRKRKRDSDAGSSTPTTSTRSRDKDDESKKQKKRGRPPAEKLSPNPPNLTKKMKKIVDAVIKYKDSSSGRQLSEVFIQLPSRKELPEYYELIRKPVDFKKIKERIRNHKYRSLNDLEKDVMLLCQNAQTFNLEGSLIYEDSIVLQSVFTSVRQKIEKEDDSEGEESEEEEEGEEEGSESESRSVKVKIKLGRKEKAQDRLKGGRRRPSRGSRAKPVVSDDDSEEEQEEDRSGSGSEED
T3 sequence (P51531 whole entry): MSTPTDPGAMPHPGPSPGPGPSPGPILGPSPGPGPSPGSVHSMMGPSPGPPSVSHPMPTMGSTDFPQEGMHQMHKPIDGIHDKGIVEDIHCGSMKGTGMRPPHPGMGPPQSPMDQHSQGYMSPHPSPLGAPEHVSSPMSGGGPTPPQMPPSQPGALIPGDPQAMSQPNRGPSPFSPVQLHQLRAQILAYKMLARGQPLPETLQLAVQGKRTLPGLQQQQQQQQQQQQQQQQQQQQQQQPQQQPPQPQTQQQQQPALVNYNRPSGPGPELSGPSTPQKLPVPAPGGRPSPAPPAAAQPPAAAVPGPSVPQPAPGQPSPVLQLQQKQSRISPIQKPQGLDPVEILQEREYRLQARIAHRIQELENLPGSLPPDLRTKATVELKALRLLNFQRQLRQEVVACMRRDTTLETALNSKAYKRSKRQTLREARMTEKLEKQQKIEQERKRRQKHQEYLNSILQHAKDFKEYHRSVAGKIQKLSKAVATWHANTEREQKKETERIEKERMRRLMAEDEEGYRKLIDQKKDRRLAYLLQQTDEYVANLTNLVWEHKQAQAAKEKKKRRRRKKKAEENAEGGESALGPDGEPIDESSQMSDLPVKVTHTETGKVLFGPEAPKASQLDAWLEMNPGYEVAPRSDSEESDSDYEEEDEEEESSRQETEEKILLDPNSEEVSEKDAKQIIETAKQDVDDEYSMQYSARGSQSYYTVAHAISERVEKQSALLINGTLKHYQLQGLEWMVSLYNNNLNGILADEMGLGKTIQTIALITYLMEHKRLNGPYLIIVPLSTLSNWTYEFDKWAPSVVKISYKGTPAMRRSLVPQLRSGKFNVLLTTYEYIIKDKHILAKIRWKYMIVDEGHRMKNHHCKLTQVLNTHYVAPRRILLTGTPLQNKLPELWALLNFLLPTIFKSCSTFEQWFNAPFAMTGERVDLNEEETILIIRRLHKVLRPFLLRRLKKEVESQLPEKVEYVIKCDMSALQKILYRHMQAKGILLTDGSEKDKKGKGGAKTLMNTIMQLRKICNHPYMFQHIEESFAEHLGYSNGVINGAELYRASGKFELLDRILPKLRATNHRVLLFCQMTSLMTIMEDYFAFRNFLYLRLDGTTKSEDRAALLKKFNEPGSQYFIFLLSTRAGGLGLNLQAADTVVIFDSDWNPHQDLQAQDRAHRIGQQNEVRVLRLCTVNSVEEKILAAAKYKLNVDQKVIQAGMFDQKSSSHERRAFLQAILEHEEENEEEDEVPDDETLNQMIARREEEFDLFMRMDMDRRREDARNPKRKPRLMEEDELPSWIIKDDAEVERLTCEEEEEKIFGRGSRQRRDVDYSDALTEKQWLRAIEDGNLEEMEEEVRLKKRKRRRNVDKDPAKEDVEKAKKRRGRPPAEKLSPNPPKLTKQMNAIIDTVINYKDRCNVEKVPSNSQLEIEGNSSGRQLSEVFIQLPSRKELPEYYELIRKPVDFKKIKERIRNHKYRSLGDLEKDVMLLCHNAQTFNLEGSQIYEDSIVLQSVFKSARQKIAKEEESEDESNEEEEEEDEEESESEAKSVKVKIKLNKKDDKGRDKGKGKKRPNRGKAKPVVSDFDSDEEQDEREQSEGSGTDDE

`COc1cc2nn(C3CCN(Cc4cccc5c4CN(C4CCC(=O)NC4=O)C5=S)CC3)cc2cc1NC(=O)c1cccc(C(F)(F)F)n1` (stereo not shown) [GT-04950, N-(2-(1-((2-(2,6-dioxopiperidin-3-yl)-1-thioxoisoindolin-4-yl)methyl)piperidin-4-yl)-6-methoxy-2H-indazol-5-yl)-6-(trifluoromethyl)picolinamide]: the half-inhibitory concentration (IC50) was 500 to 1000 nM in the assay with Jurkat and 100 to 500 nM in the assay on MM.1S (Table I-5, designed based on the IRAK4 inhibitors, read-out: Inhibitory activity (IC50, nM) MM.1S). Moreover, the inhibition at 0.5 µM in assay [1] was 40 to 53%. The inhibition at 2 µM in assay [1] was in the range of 60 to 80%.
Regarding `Nc1nnc(-c2ccccc2O)cc1N1CCN(Cc2ccc3c(c2)C(=S)N(C2CCC(=O)NC2=O)C3)CC1` (stereo not shown) [GT-08787, 3-(6-((4-(3-amino-6-(2-hydroxyphenyl)pyridazin-4-yl)piperazin-1-yl)methyl)-1-thioxoisoindolin-2-yl)piperidine-2,6-dione], in the assay with MM.1S (10 nM, Table I-8, SMARCA2/4 inhibitors, read-out: Inhibition Rate at 10 nM (%)), the inhibition at 0.01 µM is 30 to 40%. Further, in the assay with MM.1S (500 nM, Table I-8, SMARCA2/4 inhibitors, read-out: Inhibition Rate at 500 nM (%)), the inhibition at 0.5 µM lay within 40 to 50%. In addition, the “Degradation of substrate protein BRG1” value at BRG1 is given as “A (0% ≤ substrate protein remaining % ≤ 80%)”. Further, the “Degradation of substrate protein BRM” value at BRM is “A (0% ≤ substrate protein remaining % ≤ 80%)”. Besides, in assay [1], the inhibition at 0.5 µM lay within 60 to 80% and the inhibition at 2 µM lay within 80 to 100%.

A word on the IC50: it is the midpoint of a concentration-inhibition curve. One may read the inhibition as the share of the control response that was lost under treatment.

Source of the values: patent publication EP4745138A1, “THIO-GLUTARIMIDO ISOINDOLINONE DERIVATIVE, BIFUNCTIONAL PROTEIN DEGRADER CONTAINING SAME, AND USES THEREOF” (Gluetacs Therapeutics (Shanghai) Co., Ltd., priority 2023, dated 2025).
